Starred links: 1 amine or outer side, 2 acyl side, 3 side chain; linkers in the order of their positions; H or OH if unused. Positions of bridges follow the written chain, without caps; N, C: chain ends. Residues, ends and D or L forms follow the SMILES beside them. X1 = O=C(C[*:2])Nc1cccc(C(=O)[*:1])c1
Tests used:
mouse VEGFR2 = molecular target: T1, mouse VEGFR2 (Mus musculus, UniProt P35918); assay: Binding of cyclic peptide to mouse VEGFR2 by BLI method (ForteBio); conditions: VEGFR2-Fc fusion immobilized, 30° C., read-out: koff, dissociation rate constant for mouse VEGFR2
T1 construct: Fc (fusion partner)
T1 sequence (P35918 20-762 limits assumed): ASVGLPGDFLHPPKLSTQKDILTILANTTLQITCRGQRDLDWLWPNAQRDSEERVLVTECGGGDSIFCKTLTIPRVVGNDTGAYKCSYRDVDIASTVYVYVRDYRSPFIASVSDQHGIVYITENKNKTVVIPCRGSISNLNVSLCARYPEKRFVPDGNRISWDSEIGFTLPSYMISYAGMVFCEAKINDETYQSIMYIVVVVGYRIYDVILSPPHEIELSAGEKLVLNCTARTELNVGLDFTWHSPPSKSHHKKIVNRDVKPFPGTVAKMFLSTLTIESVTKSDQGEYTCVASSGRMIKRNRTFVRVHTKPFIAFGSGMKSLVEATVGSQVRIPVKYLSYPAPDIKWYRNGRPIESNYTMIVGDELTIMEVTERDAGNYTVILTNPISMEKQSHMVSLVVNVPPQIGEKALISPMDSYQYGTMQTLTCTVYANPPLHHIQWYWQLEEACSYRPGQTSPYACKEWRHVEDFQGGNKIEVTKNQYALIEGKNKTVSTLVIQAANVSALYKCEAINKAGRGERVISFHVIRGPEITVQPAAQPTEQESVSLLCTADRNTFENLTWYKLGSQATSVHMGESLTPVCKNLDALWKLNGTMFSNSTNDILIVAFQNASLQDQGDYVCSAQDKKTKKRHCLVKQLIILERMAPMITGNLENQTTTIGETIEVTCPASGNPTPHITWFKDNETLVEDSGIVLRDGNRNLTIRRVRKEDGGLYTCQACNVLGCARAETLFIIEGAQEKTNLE
Method: (§1) A dissociation constant of binding between the cyclic peptide L1 or BL1 thus synthesized and human VEGFR2 or mouse VEGFR2 was determined by BLI method (ForteBio). A fusion protein of VEGFR2 and Fc was immobilized onto Anti-human IgG Capture Biosensors and the cyclic peptide L1 or BL1 varied in concentration was analyzed. The temperature was set at 30° C.

HUVEC = type: cell-based, human; conditions: 24 h
Method: Next, growth inhibiting activity of L1 and BL1 against HUVEC was examined by BrdU method. HUVEC cells were treated for 30 minutes with a cyclic peptide L1 or BL1 varied in concentration and then, co-incubated with the cyclic peptide and 10 ng/mL of VEGF. Twenty four hours later, the cells were labeled with BrdU for 4 hours in the presence of the cyclic peptide and VEGF. Then, the resulting cells were fixed, stained with a peroxidase-conjugated anti-BrdU antibody, and peroxidase activity was detected using a tetramethylbenzidine color colorimetric substrate. The cells without peptide and VEGF treatments and the cells without only peptide treatment were used as a control.

human VEGFR2 = molecular target: T2, human VEGFR2 (Homo sapiens, UniProt P35968); assay: Binding of cyclic peptide to human VEGFR2 by BLI method (ForteBio); conditions: VEGFR2-Fc fusion immobilized, 30° C., read-out: koff, dissociation rate constant for human VEGFR2
T2 construct: Fc (fusion partner)
T2 sequence (P35968 20-764 limits assumed): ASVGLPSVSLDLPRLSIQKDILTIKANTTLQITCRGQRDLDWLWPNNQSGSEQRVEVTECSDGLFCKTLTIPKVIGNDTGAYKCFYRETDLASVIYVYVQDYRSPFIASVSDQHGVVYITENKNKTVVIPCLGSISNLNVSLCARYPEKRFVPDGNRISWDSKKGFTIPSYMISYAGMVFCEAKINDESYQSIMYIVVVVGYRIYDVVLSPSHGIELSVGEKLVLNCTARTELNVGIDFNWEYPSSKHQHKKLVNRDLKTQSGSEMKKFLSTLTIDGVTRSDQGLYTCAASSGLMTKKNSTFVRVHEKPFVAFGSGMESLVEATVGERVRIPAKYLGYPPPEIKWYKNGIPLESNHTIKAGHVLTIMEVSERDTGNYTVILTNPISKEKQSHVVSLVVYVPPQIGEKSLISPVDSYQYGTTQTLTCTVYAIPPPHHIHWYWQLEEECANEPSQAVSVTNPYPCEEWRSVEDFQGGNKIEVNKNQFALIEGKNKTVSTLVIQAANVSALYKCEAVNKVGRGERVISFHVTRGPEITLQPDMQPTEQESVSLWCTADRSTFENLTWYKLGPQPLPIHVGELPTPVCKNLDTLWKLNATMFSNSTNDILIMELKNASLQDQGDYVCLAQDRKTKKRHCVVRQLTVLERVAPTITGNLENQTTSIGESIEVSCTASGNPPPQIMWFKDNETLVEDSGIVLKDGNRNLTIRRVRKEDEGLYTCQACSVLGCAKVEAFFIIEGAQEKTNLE
Method: as §1

[1] = system: HUVEC and human skin-derived fibroblasts; assay: VEGF-dependent angiogenesis, Kurabo angiogenesis kit (HUVEC and human skin-derived fibroblast co-culture); type: cell-based; conditions: 10 μm-L1 administered group; 10 ng/mL VEGF, 11 days, anti-CD31 staining; compared with 50 μM Suramin
Method: Next, angiogenesis kit of Kurabo was used to study the influence of L1 or BL1 on VEGF-dependent angiogenesis. HUVEC and human skin-derived fibroblasts were co-cultured in the presence of 10 ng/mL of VEGF and L1 or BL1 varied in concentration. After culturing at 37° C., supplementation with VEGF and peptide having the same concentration three days, six days, and eight days later, and fixation of the HUVEC cells 11 days later, the resulting cells were stained with an anti-CD31 antibody to visualize them and analyzed by making use of an image analysis service included in the kit. As a control, 50 μM of an angiogenesis inhibitor Suramin was added instead of the peptide.

Row | koff (mouse VEGFR2) [s⁻¹] | koff (human VEGFR2) [s⁻¹] | SMILES | IC50 (HUVEC) [nM] | angiogenesis inhibiting effect [1]
1 | 0.0008 | 0.0009 | CC[C@H](C)[C@@H]1NC(=O)[C@H](Cc2ccccc2)NC(=O)c2cccc(c2)NC(=O)CSC[C@@H](C(=O)NCC(N)=O)NC(=O)[C@H](CCCNC(=N)N)NC(=O)[C@H](CCC(=O)O)NC(=O)[C@H](CC(C)C)NC(=O)[C@H](CO)NC(=O)[C@H]([C@@H](C)CC)NC(=O)[C@@H]2CCCN2C(=O)[C@H](Cc2c[nH]cn2)NC(=O)[C@H](C(C)C)NC(=O)[C@H](CCCCN)NC(=O)[C@H](C(C)C)NC(=O)[C@H](CCCNC(=N)N)NC(=O)[C@H](Cc2ccc(O)cc2)NC(=O)[C@H](Cc2c[nH]cn2)NC(=O)CNC1=O [BL1, MCAB-L-Phe-Ile-Gly-His-Tyr-Arg-Val-Lys-Val-His-Pro-Ile-Ser-Leu-Glu-Arg-Cys] (FIGHYRVKVHPISLERCG-NH2; linker N-17 via X1) | 60 | –
2 | – | 0.002 | CC[C@H](C)[C@@H]1NC(=O)[C@H](Cc2ccc(O)cc2)NC(=O)[C@H](CC(C)C)NC(=O)CNC(=O)[C@H](CC(N)=O)NC(=O)[C@H](C(C)C)NC(=O)[C@H](Cc2c[nH]c3ccccc23)NC(=O)[C@@H]2CCCN2C(=O)[C@H](CC(=O)O)NC(=O)[C@H]([C@@H](C)O)NC(=O)[C@H](CO)NC(=O)[C@H](C(C)C)NC(=O)[C@H](C(C)C)NC(=O)[C@H](C(C)C)NC(=O)[C@H](Cc2ccccc2)NC(=O)CSC[C@@H](C(=O)NCC(N)=O)NC(=O)[C@H](CC(=O)O)NC1=O [L1, ClAc-L-Phe-Val-Val-Val-Ser-Thr-Asp-Pro-Trp-Val-Asn-Gly-Leu-Tyr-Ile-Asp-Cys] | 60 | angiogenesis inhibiting effect stronger than that of Suramin
